System: proteasome CT-L activity
Test: Proteasome CT-L activity in blood lysates of mice one hour after oral dosing (LLVY-AMC cleavage)
Type: in vivo
Conditions: one hour post-dosing, vs vehicle-dosed cohort
Experimental: Compounds were formulated in 10% PS80/NaCitrate (pH 3) vehicle and administered to mice orally (PO) (3 animals/cohort). One hour post-dosing, the animals were sacrificed and the following tissues harvested: blood, brain, adrenal gland, heart and liver. Whole blood (˜200 μl) was washed twice with PBS and lysed by hypotonic shock (300 μl 50 mM Tris pH 8, 5 mM EDTA). Blood lysates were stored at −80° C. until assayed. Blood lysates were clarified by centrifugation in a microcentrifuge. The CT-L specific activity of proteasome in each lysate was evaluated by determining: a) the protein concentration by modified Bradford assay with bovine gamma globulin as a standard; and b) the rate of cleavage of the fluorogenic proteasome substrate LLVY-AMC. The percent proteasome activity for the analog-treated animals was calculated by dividing of the average specific activity for each analog-dosed cohort by the average specific activity of the vehicle-dosed cohort. Percent proteasome inhibition was calculated by subtracting percent proteasome activity from 100.

Compound	proteasome CT-L inhibition (40 mg/kg PO) [%]	proteasome CT-L inhibition (20 mg/kg PO) [%]
CC(C)C[C@H](NC(=O)[C@H](Cc1ccccc1)NC(=O)[C@@H](NC(=O)c1cc(CN2CCOCC2)on1)C(C)C)C(=O)[C@@]1(C)CO1 [Compound (061)]	> 80	
COC[C@H](NC(=O)c1ccon1)C(=O)N[C@@H](COC)C(=O)N[C@@H](CC(C)C)C(=O)[C@@]1(C)CO1 [Compound (083)]		> 80
CC(C)C[C@H](NC(=O)c1cc(CN2CCOCC2)on1)C(=O)N[C@@H](Cc1ccccc1)C(=O)N[C@@H](CC(C)C)C(=O)[C@@]1(C)CO1 [Compound (023)]	> 80	
COC[C@H](NC(=O)c1cc(C)on1)C(=O)N[C@@H](Cc1cscn1)C(=O)N[C@@H](CC(C)C)C(=O)[C@@]1(C)CO1 [Compound (039)]		> 75
COCC[C@H](NC(=O)c1cc(C(C)C)on1)C(=O)N[C@@H](Cc1ccccc1)C(=O)N[C@@H](CC(C)C)C(=O)[C@@]1(C)CO1 [Compound (068)]	> 70	
COC[C@H](NC(=O)c1cc(C)no1)C(=O)N[C@@H](COC)C(=O)N[C@@H](CC(C)C)C(=O)[C@@]1(C)CO1 [Compound (085)]		> 50
COC[C@H](NC(=O)c1cc(C)on1)C(=O)N[C@H](C(=O)N[C@@H](CC(C)C)C(=O)[C@@]1(C)CO1)C(C)C [Compound (029)]		> 70
COC[C@H](NC(=O)c1cc(C)on1)C(=O)N[C@@H](Cc1ccccc1)C(=O)N[C@@H](CC(C)C)C(=O)[C@@]1(C)CO1 [Compound (010)]	> 90	
Cc1cc(C(=O)N[C@@H](Cc2ccccn2)C(=O)N[C@@H](Cc2ccccc2)C(=O)N[C@@H](CC(C)C)C(=O)[C@@]2(C)CO2)no1 [Compound (055)]		> 80
